Results published in paper PMC7529893, “Structural basis for substrate recognition and chemical inhibition of oncogenic MAGE ubiquitin ligases” (Nature Communications, 2020).
In brackets after ≈: the same amount, converted by molar mass.

Assays:
[1] = molecular target: T1, MAGE-A11 binding to PCF11 (Homo sapiens, UniProt P43364); assay: Pull-down (co-IP) of FLAG-MAGE-A11 with endogenous PCF11 in cell lysate; details: 100 µM, 24 h, FLAG-MAGE-A11 HEK293FT cell lysates
T1 construct: expressed in transfected cells
T1 sequence (P43364 1-429): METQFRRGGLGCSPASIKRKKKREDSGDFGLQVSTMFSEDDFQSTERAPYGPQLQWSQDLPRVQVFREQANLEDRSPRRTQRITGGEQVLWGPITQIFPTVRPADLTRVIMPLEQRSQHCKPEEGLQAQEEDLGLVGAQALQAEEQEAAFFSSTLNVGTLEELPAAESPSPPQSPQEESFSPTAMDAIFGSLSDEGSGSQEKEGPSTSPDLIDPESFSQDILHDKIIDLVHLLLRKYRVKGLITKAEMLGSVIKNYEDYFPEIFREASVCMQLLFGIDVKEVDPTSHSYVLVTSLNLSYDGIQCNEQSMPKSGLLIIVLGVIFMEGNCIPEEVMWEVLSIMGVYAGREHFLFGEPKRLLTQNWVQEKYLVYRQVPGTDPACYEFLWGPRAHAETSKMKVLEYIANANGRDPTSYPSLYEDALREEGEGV
Protocol: HEK293FT cells were plated in 6 cm^2 plates and transfected 24 h later with Effectene (QIAGEN) according to the manufacturer’s protocol. After 48 h, cells were washed and scraped in cold PBS, spun down, and resuspended in lysis buffer (50 mM Tris pH 7.4, 150 mM NaCl, 1 mM DTT, 0.1% (v/v) Triton X-100, 10 mM N-Ethylmaleimide, and 1X protease inhibitor cocktail (Sigma)). Cell lysates were incubated with appropriate antibodies overnight at 4 °C and then with protein A beads for 2 h at 4 °C. Beads were then washed with lysis buffer three times and eluted with 2X SDS sample buffer.
For western blotting, samples in SDS sample buffer were resolved on SDS-PAGE gels and then transferred to nitrocellulose membranes prior to blocking in TBST with 5% (w/v) milk powder or 3% (w/v) bovine serum albumin and probing with primary and secondary antibodies (GE Healthcare). Primary antibodies were: anti-Myc (Sigma, #C3956), anti-FLAG (Sigma, #F3165), anti-HUWE1 (Novus Biologicals, #NB 100-652), anti-PCF11 (Bethyl Laboratories, #A303-706A), anti-GAPDH (Cell Signaling Technology, #2118), anti-TRIM28 (Abcam, #ab22553), anti-AMPKα1 (Cell Signaling Technology, #2795), and anti-MMS19 (Proteintech, #16015-1-AP) and Tb-anti-GST (Invitrogen, #PV3551). Secondary antibodies were: Donkey Anti-Rabbit IgG (GE Healthcare, NA934V) and Sheep Anti-Mouse IgG (GE Healthcare, NA931V). […]

[2] = Solubility assay (μSOL Evolution); format: physicochemical; details: citrate phosphate-buffered saline (isotonic) with 1% DMSO; 18 h at RT
Protocol: Solubility assays were carried out on a Biomek FX lab automation workstation (Beckman Coulter, Inc., Fullerton, CA) using μSOL Evolution software (pION Inc., Woburn, MA). The detailed method is described as follows. 10 µl of 10 mM compound stock (in DMSO) was added to 190 μl 1-propanol to make a reference stock plate. In total, 5 µl from this reference stock plate were mixed with 70 µl 1-propanol and 75 µl citrate phosphate-buffered saline (PBS; isotonic) to make the reference plate, and the UV spectrum (250–500 nm) of the reference plate was read. In total, 6 µl of 10 mM test compound stock was added to 594 µl buffer in a 96-well storage plate and mixed. The storage plate was sealed and incubated at RT for 18 h. The suspension was then filtered through a 96-well filter plate (pION Inc., Woburn, MA). In all, 75 µl of filtrate was mixed with 75 µl 1-propanol to make the sample plate, and the UV spectrum of the sample plate was read. Calculations were carried out with μSOL Evolution software based on the area under the curve (AUC) of the UV spectrum of the sample and reference plates. All compounds were tested in triplicate.

SMILES | MAGE-A11 binding to PCF11 in cell lysate ([1]; listed as SJ521054) | solubility at 18 h [2] [µM] | MAGE-A11 binding to PCF11 in cell lysate ([1]; listed as SJ1008066)
FC(F)(F)c1ccc2c(NCCCNCc3ccc4[nH]ccc4c3)ccnc2c1 [SJ000521054-02] | inhibited MAGE-A11 binding to PCF11 in cell lysates | 26.5 (≈ 10.6 µg/mL) | 
c1ccc2c(NCCCNCc3ccc4[nH]ccc4c3)ccnc2c1 [SJ001008066-01] |  | 37.8 (≈ 12.5 µg/mL) | inhibited MAGE-A11 binding to PCF11 in cell lysates
